# Measurements reported in paper PMC12669049, “Energy-transfer photoproximity labelling in live cells using an organic cofactor” (Nature Chemistry, 2025).
# Values joined by “and” are separate entries in the source; they are usually repeats but may differ in a detail not shown here. Identical values can stand only once.
# Tests used:
# [1] = Stationary and time-resolved absorption and emission spectroscopy (photophysics); format: physicochemical
# Excerpt: (§1) Details of the stationary and time-resolved absorption and emission spectroscopy procedures used for the mechanistic studies are given in Supplementary Section 3.3.
# [2] = Phenyl azide S3 conversion via HPLC
# Experimental: 3.2 Photocatalyst Screening
# 3.2.1 Phenyl azide conversion via HPLC
# To an 8 mL crimp neck vial with magnetic stirrer bar was added a solution of phenyl azide S3 (1 mM, 10 µL of 100 mM DMSO stock) and photocatalyst (PC, 0.1 mM, 10 µL of 10 mM DMSO stock) in PBS pH = 7.4 (1 mL). The vial was sealed and sparged with Ar for 10 min before being irradiated with a 450 nm light (40W, EvoluChem, PhotoRedOx Box) for 15 min. […]
# trifluoromethylbenzoic acid as the internal standard (1 mM) and analysed using analytical HPLC (see Section 2.5 for further details). Conversions were calculated using standard calibration curve of phenyl azide S3 vs. internal standard and are represented as the average of duplicate runs.
# Calibration curve of phenyl azide S3 vs. internal standard
# (also on this page, place not known: Normalised Intensity (Substrate/Standard))
# [3] = Photocatalytic conversion of diazirine, analysis via 19F NMR
# Experimental: To an 8 ml crimp neck vial with a magnetic stirrer bar was added a solution of diazirine (100 µM, 10 µl of 10 mM DMSO stock) and photocatalyst (10 µM, 10 µl of 1 mM DMSO stock) in PBS (pH = 7.4, 1 ml). The vial was sealed and sparged with Ar for 10 min before being irradiated with 450 nm light (30 W LED; EvoluChem, PhotoRedOx Box) for 15 min. The solution was then spiked with p-(trifluoromethyl)benzoic acid as the internal standard (100 µM, chemical shift (δ) = −61.35 ppm) and analysed via ^19F NMR to determine the conversion of diazirine (δ = −64.23 ppm) to the carbinol product (δ = −76.64 ppm)[17]. Conversions are represented as the average of duplicate runs.
# [4] = cited from earlier work
# [5] = system: HeLa cells; assay: Cell viability assay (WST-1); format: cell-based; conditions: WST-1, 24 h incubation, Extended Data Fig. 5a
# [6] = Transient absorption of 4 with substrates (triplet energy / electron transfer); format: physicochemical; conditions: GSH 50 mM
# Excerpt: as §1
# [7] = system: reporter HeLa cells expressing cytoplasmic HaloTag–SNAP-tag fusion protein; assay: Modified chloroalkane penetration assay (CAPA), HeLa; format: in vitro ADME; conditions: modified pulse-chase CAPA, 1 h pulse in FluoroBrite DMEM, chase CA–TMR-d12 15 min, BG–SiR-d12 1 µM for normalisation, flow cytometry, Fig. 4f, three biological replicates (mean ± SD)
# Experimental: (§2) CA–TMR-d12 and BG–SiR-d12 were prepared as described previously. HeLa or HEK293T cells were seeded onto 10 cm cell culture dishes and allowed to attach for 24 h under standard cell culture maintenance conditions. The culture medium was replaced with fresh DMEM (5 ml, high glucose) with 10% FCS without antibiotics followed by plasmid (pcDNA5-HaloTag-Pro30-SNAP-tag) transfection using Lipofectamine 3000 (Thermo) according to Supplementary Section 2.8. After 24 h, the transfected cells were trypsinized, seeded into 24-well cell culture plates (1 × 10^5 cells per well) and incubated again for 24 h. […] Cell pellets were resuspended in PBS (400 µl) and analysed via flow cytometry (FACS Fortessa). The mean fluorescence intensity (MFI) values in the TMR and Cy5 (SiR) channels of live cells were determined. […] Equation (2) below was used to determine the percentage fluorescence intensity:2 Fluorescenceintensity%=(photocatalyst−chloroalkaneMFITMR)−(photocatalystMFITMR)/(CA−NHBocMFITMR)−(photocatalystMFITMR)×100.
# [8] = system: reporter HEK293T cells expressing cytoplasmic HaloTag–SNAP-tag fusion protein; assay: Modified chloroalkane penetration assay (CAPA), HEK293T; format: in vitro ADME; conditions: 1 h pulse, flow cytometry, Extended Data Fig. 6b, representative data of two biological replicates
# Experimental: as §2
# [9] = PBS pH 7.4, S3 1 mM, photocatalyst 0.1 mM, 450 nm 15 min, HPLC calibration curve, average of duplicate runs
# [10] = PBS pH 7.4, diazirine 100 µM, photocatalyst 10 µM, 450 nm LED 15 min, average of duplicate runs
compound,measurement,setting,value
"O=c1c2ccccc2sc2ccccc12 [2a, thioxanthone]",λmax of first absorption band,"[1]; Fig. 1a, footnote a (footnote text not shown; a = 1:1 DMSO/H2O in Supplementary Fig. 4)",385 nm
same,λmax,[1]; Supplementary Fig. 4,387 nm
same,Conversion of aryl azide S3,[2]; [9],77%
same,Conversion of diazirine 1,[3]; [10],71% and > 70%
same,"Triplet energy (ET, E0–0,T1)",[4],67.4 kcal/mol
"CC(C)(C)c1ccnc(-c2cc(C(C)(C)C)ccn2)c1.F[P-](F)(F)(F)(F)F.Fc1c[c-]c(-c2ccc(C(F)(F)F)cn2)c(F)c1.Fc1c[c-]c(-c2ccc(C(F)(F)F)cn2)c(F)c1.[Ir+3] [3b, [Ir(dF(CF3)ppy)2(dtbbpy)]PF6]",λmax,"[1]; Supplementary Fig. 4, 1:1 DMSO/H2O",380 nm
same,Singlet oxygen quantum yield ΦΔ,[1]; in acetonitrile,93%
same,"Triplet energy (ET, E0–0,T1)",[4],60.1 kcal/mol
"O=C1OC2(c3ccccc31)c1cc(Br)c(O)c(Br)c1Oc1c2cc(Br)c(O)c1Br [EY, eosin Y]",Cytotoxicity (in words),[5],do not induce cytotoxicity
"N[C@@H](CCC(=O)N[C@@H](CS)C(=O)NCC(=O)O)C(=O)O [GSH, glutathione]",Quantum yield of electron transfer ΦeT to triplet state of 4,[6],73%
"Cn1c2nc(=O)[nH]c(=O)c-2cc2ccccc21 [compound 4, deazaflavin]",Conversion of aryl azide S3,[2]; [9],100%
same,Conversion of diazirine 1,"[3]; 1:1 DMSO/H2O, 450 nm 15 min",85%
Cn1c2nc(=O)n(CC(=O)NCCOCCOCCCCCCCl)c(=O)c-2cc2ccccc21 [compound 15],CP50 (treatment concentration where 50% of the HaloTags are labelled),[7],198 ± 79.2 nM
same,CP50,[8],"2,063 nM"
Ir[dFCF3CO2Hppy]2[diolbpy] [3a],λmax,[1]; Supplementary Fig. 4,380 nm
same,Conversion of aryl azide S3,[2]; [9],84%
same,Cytotoxicity (in words),[5],do not induce cytotoxicity
same,"Triplet energy (ET, E0–0,T1)",[4],60.1 kcal/mol
MeO-thioxanthone [2b],Conversion of aryl azide S3,[2]; [9],61%
same,Conversion of diazirine 1,[3]; [10],< 5%
Riboflavin tetraacetate [RTA],Conversion of aryl azide S3,[2]; pH 7.4,69%
diMeO-alloxazine [S2],λmax,[1]; Supplementary Fig. 4,396 nm
same,Conversion of aryl azide S3,[2]; [9],94%
diMeO-deazaflavin [S1],λmax,[1]; Supplementary Fig. 4,418 nm
same,Conversion of aryl azide S3,[2]; [9],79%
same,Conversion of diazirine 1,[3]; [10],< 50% and 44%
